Data taken from patent US9157905B2, “Method for identifying oncogene, method for establishing oncogene-expressing cell, and method of screening oncogene targeting drug” (FUJIREBIO INC., priority 2010, dated 2015).

Assays:
[1] = tested on: PDGFRα V561D gene-introduced cells (PC-9); assay: MTS assay of living cells, PDGFRα V561D gene-introduced PC-9 cells cultured 72 hours with drug; type: cell-based, human
Method: (§1) PC-9 cells or cells obtained by introducing the oncogene, the PDGFRα V561D gene into PC-9 cells in Example 4 were seeded in a 96-well plate. The cells were cultured for 72 hours in medium containing gefitinib at various concentrations, and then living cells were quantified by an MTS assay.
The cells obtained by introducing the PDGFRα V561D gene into PC-9 cells in Example 4 were seeded in a 96-well plate. The cells were cultured in medium containing a PDGFRα inhibitor, imatinib at various concentrations or medium containing 1 μM gefitinib and imatinib at various concentrations for 72 hours, and then living cells were quantified by the MTS assay.

PC-9 cells = assay: MTS assay of living cells, PC-9 cells cultured 72 hours with drug; type: cell-based, human; details: gefitinib at various concentrations, FIG. 5
Method: as §1

Structure (SMILES)	proliferation of the PDGFRα V561D gene-introduced cells ([1]; imatinib at various concentrations in the presence of 1 μM gefitinib, FIG. 6)	proliferation of the PDGFRα V561D gene-introduced cells ([1]; gefitinib at various concentrations, FIG. 5)	proliferation of the PDGFRα V561D gene-introduced cells ([1]; in the presence of 1 μM gefitinib (medium with imatinib at various concentrations), FIG. 6)	proliferation of PC-9 cells (PC-9 cells)
Cc1ccc(NC(=O)c2ccc(CN3CCN(C)CC3)cc2)cc1Nc1nccc(-c2cccnc2)n1 [imatinib]	inhibited by the PDGFRα inhibitor, imatinib in a dose dependent manner			
COc1cc2ncnc(Nc3ccc(F)c(Cl)c3)c2cc1OCCCN1CCOCC1 [gefitinib]		not inhibited	inhibited in the presence of 1 μM gefitinib	inhibited by gefitinib in a dose dependent manner
